Laboratory results taken from ChEMBL document CHEMBL1128840, “Synthesis of myo-inositol-1-phosphatase inhibitors in which the phosphate group is replaced by less polar groups” (Bioorg Med Chem Lett, 1995).
pIC50: −log10 of the molar value.

Biological target: T1, Inositol monophosphatase 1 (Bos taurus, UniProt P20456)
T1 sequence (P20456 whole entry): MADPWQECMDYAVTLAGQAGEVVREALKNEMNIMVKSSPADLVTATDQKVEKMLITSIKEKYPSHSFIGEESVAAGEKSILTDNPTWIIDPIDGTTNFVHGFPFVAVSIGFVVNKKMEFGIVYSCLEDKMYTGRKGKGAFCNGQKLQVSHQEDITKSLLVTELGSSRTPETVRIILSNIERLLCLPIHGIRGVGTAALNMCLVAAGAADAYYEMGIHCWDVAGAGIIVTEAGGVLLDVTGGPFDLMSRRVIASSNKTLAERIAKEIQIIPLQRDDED
Experiment: Inhibitory activity against myo-inositol-1-phosphatase; call rule not given here

Compared with `O=S(=O)(O)O[C@@H]1[C@H](O)C[C@@H](O)C[C@H]1OCCCCc1ccccc1O`, `NS(=O)(=O)O[C@@H]1[C@H](O)C[C@@H](O)C[C@H]1OCCCCc1ccccc1O` is lower in pIC50: 4.05 for the first, less than 3.52 for the second. The first is the more potent here.

Going from `O=P(O)(O)O[C@@H]1[C@H](O)C[C@@H](O)C[C@H]1OCCCc1ccccc1` to `O=P(O)(O)O[C@@H]1[C@H](O)C[C@@H](O)C[C@H]1OCCCCc1ccccc1O`, the pIC50 rises from 6.10 to 6.52 (0.42 log units). The second is the more potent here.

Compared with `CC(C)OP(=O)(O)O[C@@H]1[C@H](O)C[C@@H](O)C[C@H]1OCCCCc1ccccc1O`, `CP(C)(=O)O[C@@H]1[C@H](O)C[C@@H](O)C[C@H]1OCCCCc1ccccc1O` is lower in pIC50: 4.30 for the first, less than 3.52 for the second. The first is the more potent here.

Going from `O=C1CCCCC1CCCCO[C@@H]1C[C@H](O)C[C@@H](O)[C@H]1OS(=O)(=O)O` (some centres not stated) to `NS(=O)(=O)O[C@@H]1[C@H](O)C[C@@H](O)C[C@H]1OCCCCC1CCCCC1=O` (some centres not stated), the pIC50 falls from 4.00 to 3.70 (0.30 log units).

`CC(=O)NS(=O)(=O)O[C@@H]1[C@H](O)C[C@@H](O)C[C@H]1OCCCCC1CCCCC1=O` (some centres not stated) and `CC(=O)NS(=O)(=O)O[C@@H]1[C@H](O)C[C@@H](O)C[C@H]1OCCCCc1ccccc1O` cannot be ordered by pIC50: less than 3.52 for the first, less than 3.52 for the second.

Biological target: T1, Inositol monophosphatase 1
Experiment: Compound was tested for inhibitory activity against myo-inositol-1-phosphatase; compound was not active at 300 uM

With `NC(=O)O[C@@H]1[C@H](O)C[C@@H](O)C[C@H]1OCCCCc1ccccc1O` the IC50 was “Not Active”.

Biological target: T1, Inositol monophosphatase 1
Experiment: Compound was tested for inhibitory activity against myo-inositol-1-phosphatase; weak inhibitor

Compound `O=C(O)CO[C@@H]1[C@H](O)C[C@@H](O)C[C@H]1OCCCCc1ccccc1O` has a pIC50 of less than 3.52.
